Peptide text beside a SMILES is read from it.
System: MRSA strain 2468
Assay: Stability to pH variation (activity retention by agar well diffusion)
Assay type: physicochemical, Staphylococcus aureus
Conditions: 32 µg/mL, neutralized before test, agar well diffusion read-out, % of untreated sample, mean ± SD, n = 3
Method: The AMP solution was prepared in sterile purified water and adjusted to a final concentration of 32 µg/mL. To determine thermal stability, the AMP was exposed to temperatures of 30, 40, 60, 80, and 100 °C, as well as to autoclaving at 121 °C and 15 psi for 15 and 30 min. The susceptibility of the AMP to enzymatic degradation was examined by treating it with proteinase K, trypsin, and α-chymotrypsin (each at 1 mg/mL, Sigma-Aldrich, Warren, MI, USA), representing different proteolytic mechanisms. The AMP’s compatibility with surfactants was assessed by incubating it with 1% SDS, 1% CTAB, and 1% Triton X-100 (AppliChem GmbH, Darmstadt, Germany). Additionally, the effect of pH variations on AMP integrity was tested by adjusting the solution to pH 1, 4, 8, 10, and 14. The pH was neutralized to the original pH after incubation before conducting antibacterial activity tests. […] Stability data were expressed as residual activity percentages relative to the untreated sample (mean ± SD), and statistical significance was evaluated using two-way ANOVA and Tukey’s post hoc test, with a p-value < 0.05 considered significant.

CC(C)C[C@H](NC(=O)[C@H](CC(=O)O)NC(=O)[C@H](CS)NC(=O)[C@H](Cc1c[nH]cn1)NC(=O)[C@H](CS)NC(=O)[C@@H]1CCCN1C(=O)[C@@H](NC(=O)[C@H](CC(C)C)NC(=O)[C@H](CS)NC(=O)CNC(=O)[C@H](Cc1c[nH]c2ccccc12)NC(=O)[C@@H](NC(=O)[C@H](CC(=O)O)NC(=O)[C@@H](NC(=O)CNC(=O)[C@H](CS)NC(=O)CNC(=O)CNC(=O)[C@@H](N)CCC(=O)O)C(C)C)[C@@H](C)O)[C@@H](C)O)C(=O)N[C@@H](Cc1ccccc1)C(=O)N[C@@H](CS)C(=O)N[C@H](C(=O)N[C@H](C(=O)O)[C@@H](C)O)[C@@H](C)O [FN33 AMP] (H-EGGCGVDTWGCLTPCHCDLFCTT-OH)
Antibacterial Activity Retention of FN33 AMP (%) Against MRSA Strain 2468 (pH 1, 1 h): 74.56 ± 0.69 %
Antibacterial Activity Retention of FN33 AMP (%) Against MRSA Strain 2468 (pH 1, 6 h): 76.51 ± 0.39 %
Antibacterial Activity Retention of FN33 AMP (%) Against MRSA Strain 2468 (pH 1, 12 h): 72.85 ± 0.22 *^,† %
Antibacterial Activity Retention of FN33 AMP (%) Against MRSA Strain 2468 (pH 4, 1 h): 97.42 ± 0.65 %
Antibacterial Activity Retention of FN33 AMP (%) Against MRSA Strain 2468 (pH 4, 6 h): 96.19 ± 0.21 %
Antibacterial Activity Retention of FN33 AMP (%) Against MRSA Strain 2468 (pH 4, 12 h): 95.30 ± 0.69 *^,† %
Antibacterial Activity Retention of FN33 AMP (%) Against MRSA Strain 2468 (pH 8, 1 h): 99.53 ± 0.41%
Antibacterial Activity Retention of FN33 AMP (%) Against MRSA Strain 2468 (pH 8, 6 h): 98.03 ± 0.65%
Antibacterial Activity Retention of FN33 AMP (%) Against MRSA Strain 2468 (pH 8, 12 h): 98.76 ± 0.81%
Antibacterial Activity Retention of FN33 AMP (%) Against MRSA Strain 2468 (pH 10, 1 h): 74.63 ± 0.79 %
Antibacterial Activity Retention of FN33 AMP (%) Against MRSA Strain 2468 (pH 10, 6 h): 73.12 ± 1.04 *^,† %
Antibacterial Activity Retention of FN33 AMP (%) Against MRSA Strain 2468 (pH 10, 12 h): 69.46 ± 0.77 *^,† %
Antibacterial Activity Retention of FN33 AMP (%) Against MRSA Strain 2468 (pH 14, 1 h): 68.58 ± 0.45 %
Antibacterial Activity Retention of FN33 AMP (%) Against MRSA Strain 2468 (pH 14, 6 h): 66.80 ± 0.27 *^,† %
Antibacterial Activity Retention of FN33 AMP (%) Against MRSA Strain 2468 (pH 14, 12 h): 65.80 ± 0.84 *^,† %
